Data: US4400378A, “Pharmaceutical composition for the treatment of glaucoma” (priority 1981, dated 1983)
Structures can show the parent of a compound that is named as a salt.

Columns and labels:
[1] = tested on: intraocular pressure; experiment: Intraocular pressure in rabbits after topical application to the eye (tonometric, Alcon Applanation Pneumotonograph); assay type: in vivo, white New Zealand rabbits; conditions: 2 drops (50 μl) per eye, rabbit
Description: B=2-Amino-6-allyl-5,6,7,8-tetrahydro-4H-thiazolo[4,5-d]azepine dihydrochloride. The tests were performed on white New Zealand rabbits of both sexes having a body weight of 2.5 to 3 kg. Each rabbit was used for 4 tests at intervals of at least 3 days between tests.
The intraocular pressure was measured tonometrically with an Alcon Applanation Pneumotonograph (APTG) calibrated for the human eye. By means of a factor obtained by comparison of the manometric values and APTG values in rabbits anesthetized with urethane, the so-called real pressures were determined. Moreover, before each measurement the cornea was anesthetized with 20 μl of an 0.05% oxybuprocain [2-(diethylamino)-ethyl-4-amino-3-butoxy-benzoate] solution.
The test compound was dropped at different concentrations directly into each eye, 2 drops (50 μl) per eye.

[2] = Oral acute toxicity (LD50) in the mouse; conditions: in vivo
Excerpt: Furthermore, the compounds of the formula I and their non-toxic, pharmacologically acceptable acid addition salts show good compatibility.

| Structure (SMILES) | Values of the intraocular pressure in mmHg after one hour ([1]; 0.01% concentration) [mmHg] | Values of the intraocular pressure in mmHg after one hour ([1]; 0.03% concentration) [mmHg] | Values of the intraocular pressure in mmHg after one hour ([1]; concentration 0.3 (% not given)) [mmHg] | Values of the intraocular pressure in mmHg after one hour ([1]; concentration 1.0 (% not given)) [mmHg] | LD50 [2] [mg/kg] | Reduction of the intraocular pressure in % after one hour ([1]; 0.3% concentration) [%] | Reduction of the intraocular pressure in % after one hour ([1]; 1.0% concentration) [%] | Reduction of the intraocular pressure in % after one hour ([1]; 3.0% concentration) [%] |
| --- | --- | --- | --- | --- | --- | --- | --- | --- |
| C=CCN1CCc2nc(N)sc2CC1.Cl.Cl [Compound B, 2-Amino-6-allyl-5,6,7,8-tetrahydro-4H-thiazolo[4,5-d]azepine dihydrochloride] | 15 | 14.5 | 13 | 10 | 455 | – | – | – |
| CCN1CCc2nc(N)oc2CC1 [Compound A, 2-Amino-6-ethyl-5,6,7,8-tetrahydro-4H-oxoazolo[4,5-d]azepine dihydrochloride] | – | – | – | – | 2.21 | -15 | -21 | -32 |
